# Laboratory results: ChEMBL document CHEMBL4130423, “Synthesis, in vitro β-glucuronidase inhibitory potential and molecular docking studies of quinolines” (Eur J Med Chem, 2017)
# Columns and labels:
# [1] = target: T1, Beta-glucuronidase (Bos taurus, UniProt A3KMY8); experiment: Inhibition of bovine liver beta-glucuronidase using p-nitrophenyl-beta-D-glucuronide as substrate preincubated for 30 mins followed by substrate addition by spectrophotometric analysis
# T1 sequence (A3KMY8 whole entry): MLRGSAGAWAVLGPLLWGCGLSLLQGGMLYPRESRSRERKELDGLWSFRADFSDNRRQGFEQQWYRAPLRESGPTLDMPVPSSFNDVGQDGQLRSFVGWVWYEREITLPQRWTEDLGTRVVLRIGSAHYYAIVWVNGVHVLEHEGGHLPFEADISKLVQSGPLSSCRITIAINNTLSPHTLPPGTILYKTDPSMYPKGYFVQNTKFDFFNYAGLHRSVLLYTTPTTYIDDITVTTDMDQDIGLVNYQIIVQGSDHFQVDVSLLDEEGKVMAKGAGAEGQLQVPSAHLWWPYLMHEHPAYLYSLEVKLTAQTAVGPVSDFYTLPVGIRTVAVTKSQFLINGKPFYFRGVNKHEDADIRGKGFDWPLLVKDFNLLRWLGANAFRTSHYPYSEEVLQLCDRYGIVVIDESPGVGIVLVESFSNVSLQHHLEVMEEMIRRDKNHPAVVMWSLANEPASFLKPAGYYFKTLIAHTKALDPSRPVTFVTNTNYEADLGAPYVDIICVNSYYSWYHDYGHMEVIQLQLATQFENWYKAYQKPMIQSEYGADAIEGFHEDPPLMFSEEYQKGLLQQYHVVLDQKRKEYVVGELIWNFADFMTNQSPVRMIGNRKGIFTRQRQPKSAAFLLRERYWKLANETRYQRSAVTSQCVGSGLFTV
# [2] = target: T2, Beta-glucuronidase (Bos taurus) (UniProt A3KMY8); experiment: Potency index, ratio of saccharic acid 1,4-lactone IC50 to test compound IC50 for bovine liver beta-glucuronidase
# T2 sequence (whole entry): T1 sequence (A3KMY8 whole entry)
IC50 [1] [µM],Ratio IC50 [2],SMILES
31.6,,O=[N+]([O-])c1ccc(S(=O)(=O)Nc2cnc3ccccc3c2)cc1
49.5,,O=S(=O)(Oc1cccc2cccnc12)c1ccccc1
24.5,,Cc1cc(S(=O)(=O)Nc2cccc3cccnc23)c(C)cc1Cl
9.7,,O=S(=O)(Oc1cccc2cccnc12)c1ccc(Cl)cc1Cl
6.1,8,O=S(=O)(Nc1cccc2cccnc12)c1ccc(Cl)cc1Cl
84.4,,CCCc1ccc(S(=O)(=O)Oc2cccc3cccnc23)cc1
75.1,,CCCCCCCCS(=O)(=O)Nc1cnc2ccccc2c1
43.2,,COc1ccc(S(=O)(=O)Nc2cccc3ncccc23)cc1OC
66.5,,COc1ccc(Br)cc1S(=O)(=O)Nc1cnc2ccccc2c1
23.5,,Cc1cc(S(=O)(=O)Nc2cccc3ncccc23)c(C)cc1Cl
70.5,,CCCc1ccc(S(=O)(=O)Nc2cccc3cccnc23)cc1
2.8,,COc1ccc(-c2nc3ccccc3c(=O)[nH]2)cc1O
5.5,,O=S(=O)(Nc1cnc2ccccc2c1)c1cc(Cl)ccc1Cl
50.2,,COc1ccc(Br)cc1S(=O)(=O)Nc1cccc2ncccc12
34.4,,Cc1cc(S(=O)(=O)Nc2cnc3ccccc3c2)c(C)cc1Cl
31.3,,O=[N+]([O-])c1ccc(S(=O)(=O)Nc2cccc3cccnc23)cc1
8.1,,O=[N+]([O-])c1ccccc1S(=O)(=O)Nc1cnc2ccccc2c1
49.2,,COc1ccc(S(=O)(=O)Nc2cccc3cccnc23)cc1
2.1,24,O=S(=O)(Nc1cccc2ncccc12)c1ccc(Cl)cc1Cl
12.2,,O=[N+]([O-])c1cccc(S(=O)(=O)Nc2cccc3ncccc23)c1

IC50 [1] [µM],Ratio IC50 [2],SMILES
4.5,,O=S(=O)(Nc1cccc2ncccc12)c1cc(Cl)ccc1Cl
30.1,,O=[N+]([O-])c1cccc(S(=O)(=O)Oc2cccc3cccnc23)c1
53.4,,O=S(=O)(Nc1cnc2ccccc2c1)c1ccccc1
33.4,,O=S(=O)(Nc1cccc2cccnc12)c1ccc(Cl)cc1
33.5 to 53.6,,COc1ccc(S(=O)(=O)Nc2cnc3ccccc3c2)cc1OC
41.6,,Cc1cc(S(=O)(=O)Oc2cccc3cccnc23)c(C)cc1Cl
42.6,,COc1ccc(S(=O)(=O)Nc2cccc3cccnc23)cc1OC
8.4,6,O=S(=O)(Nc1cnc2ccccc2c1)c1ccc(Cl)cc1Cl
27.2,,CCCc1ccc(S(=O)(=O)Nc2cnc3ccccc3c2)cc1
46.2,,O=[N+]([O-])c1cccc(S(=O)(=O)Nc2cnc3ccccc3c2)c1
75.1,,CCCc1ccc(S(=O)(=O)Nc2cccc3ncccc23)cc1
6.4,,O=[N+]([O-])c1ccccc1S(=O)(=O)Oc1cccc2cccnc12
48.6,,CS(=O)(=O)Nc1cccc2cccnc12
16.1,3,O=[N+]([O-])c1cccc(S(=O)(=O)Nc2cccc3cccnc23)c1
1.6,30,O=S(=O)(Nc1cccc2ncccc12)c1cc(Cl)cc(Cl)c1O
68.5,,COc1ccc(Br)cc1S(=O)(=O)Nc1cccc2cccnc12
49.5,,COc1ccc(Br)cc1S(=O)(=O)Oc1cccc2cccnc12
18.2,3,O=[N+]([O-])c1ccccc1S(=O)(=O)Nc1cccc2cccnc12
66.4,,O=S(=O)(Nc1cccc2cccnc12)c1ccccc1
15.4,,O=[N+]([O-])c1ccc(S(=O)(=O)Oc2cccc3cccnc23)cc1

SMILES,IC50 [1] [µM],Ratio IC50 [2]
COc1ccc(-c2nc3ccccc3c(=O)[nH]2)cc1,1.1,
